Converted amounts (≈) assume the structure as drawn. “Also recorded” adds a separate entry of the source. Where two headings read alike, the source gives them in different places.
Legend:
[1] = Lipophilicity, octanol/water partition coefficient (LogP); type: physicochemical
Protocol: The most important parameter of drug candidates is lipophilicity, which determines water solubility, absorption and often cytotoxicity. The lipophilicity of the synthesized compounds was measured as the partition (P) or distribution (D) coefficient. The octanol/water partition/distribution coefficient is a widely used parameter for measuring lipophilicity. The Log P value is the ratio of the concentrations of a neutral substance in two immiscible phases: water and octan-1-ol. Log D is the log partition at a particular pH, and it is usually reserved for partition coefficients measured under conditions in which the solute is partially or completely ionized in the aqueous phase. For all compounds used in this work, the LogP and cLogP values were determined (Table 4). Each compound was also analysed by TLC (thin layer chromatography) and ^1H-NMR to verify its purity. All synthesized and tested compounds were analytically pure. Complete characterization of the products was performed by NMR spectroscopy and HR-MS techniques to confirm their purity and molecular structures.

[2] = tested on: Mycobacterium tuberculosis H37Rv strain (Mtb); assay: Susceptibility of M. tuberculosis in broth culture (OD600 and CFU analysis); type: cell-based; settings: for MIC50 anti-Mtb (OD) / MIC50: M. tuberculosis H37Rv, broth culture, 96 h; for Bactericidal activity against M. tuberculosis (in words): tested at 1–0.25 mM, OD600; for MIC50: Mycobacterium tuberculosis
Escherichia coli = assay: Broth microdilution susceptibility test (CLSI), E. coli; type: cell-based; settings: for MIC50: Escherichia coli, read-out: MIC50 anti-E. coli
Staphylococcus aureus = assay: Broth microdilution susceptibility test (CLSI), S. aureus; type: cell-based; settings: for MIC50: Staphylococcus aureus, read-out: MIC50 anti-S. aureus
[3] = tested on: Mycobacterium tuberculosis in human monocyte-derived macrophages; assay: Bactericidal effect against intracellularly growing tubercle bacilli in human monocyte-derived macrophages (CFU); type: cell-based; settings: Mtb-infected human MDMs; for Inhibition of growth of intracellularly deposited tubercle bacilli (in words): 48 h, compounds at MIC50 concentrations
[4] = tested on: human monocyte-derived macrophages (MDMs); settings: MTT, 48 h, uninfected MDMs; 50, 30, 30, 25 µM for 6, 16A, 20, 23
bacterium = tested on: bacterium; set-up: method as in PMID 387415, PMID 16707680; settings: as low as; after siderophore-dependent uptake and intracellular activation; cited from earlier work
[5] = microdilution, Mueller-Hinton broth, 18 h, OD600
[6] = read by OD600, read-out: MIC50 anti-Mtb (OD)
[7] = read by CFU, read-out: MIC50 anti-Mtb (CFU)

Compound	logP [1]	MIC50 [2, 6] [µM]	MIC50 (Escherichia coli; [5]) [µM]	MIC50 (Staphylococcus aureus; [5]) [µM]	other results
5-thio-D-glucose pentaacetate [Compound 1]					logP ([1]; octanol/water): −0.51; MIC50 anti-Mtb (OD) ([2]; read by OD600): MIC50 > 1 mM/OD; Bactericidal activity against M. tuberculosis (in words) [2]: not bactericidal
6-thio-β-D-fructopyranose [Compound 2]					logP ([1]; octanol/water): −1.36; MIC50 anti-E. coli (Escherichia coli; [5]): MIC50 > 2 mM/E. coli MIC50 > 2 mM/S. aureus; MIC50 anti-S. aureus (Staphylococcus aureus; [5]): MIC50 > 2 mM/E. coli MIC50 > 2 mM/S. aureus; MIC50 anti-Mtb (OD) ([2]; read by OD600): MIC50 > 1 mM/OD; Bactericidal activity against M. tuberculosis (in words) [2]: not bactericidal
OC[C@@]12CO[C@H](O1)[C@H](O)[C@@H](O)[C@H]2O [Compound 3, 1,6-anhydro-5-C-hydroxymethyl-α-L-altro-pyranose]	-2.38	> 1000			Bactericidal activity against M. tuberculosis (in words) [2]: not observed
OC1C(O)C(O)C2(CO2)C(O)C1O (centres unmarked) [Compound 4, 2-C-methylene-myo-inositol oxide]	-3.22	> 1000			Bactericidal activity against M. tuberculosis (in words) [2]: not active
CS(=O)(=O)NC[C@H]1OC[C@H](O)[C@@H](O)[C@@H]1O [Compound 5, 1,5-anhydro-6-deoxy-6-methanesulfamido-D-glucitol]	-3.6	> 1000	> 2000	> 2000	Bactericidal activity against M. tuberculosis (in words) [2]: not active
CC(=O)OC[C@H]1O[C@@H](S[C@@H]2CC(=O)[C@@H]3OC[C@H]2O3)[C@H](OC(C)=O)[C@@H](OC(C)=O)[C@@H]1OC(C)=O [Compound 6]	-1.13		5000 (≈ 2450 µg/mL)	2500 (≈ 1230 µg/mL)	Inhibition of growth of intracellularly deposited tubercle bacilli (in words) [3]: able to inhibit the growth; also recorded: significantly inhibit the growth; MIC50 [2, 7]: 50 µM (≈ 24.5 µg/mL); OD[570nm] ± SD [4]: 2.163 ± 0.054
O=C1C[C@@H](S[C@@H]2O[C@H](CO)[C@@H](O)[C@H](O)[C@H]2O)[C@H]2CO[C@@H]1O2 [Compound 7, 1,6-anhydro-3-deoxy-4-S-β-D-glucopyranosyl-D-glycero-hexopyranos-2-ulose]	-2.05		> 10000	> 10000	MIC50 [2, 7]: 500 µM (≈ 161 µg/mL); Fold increase of the concentration (MIC50) needed to inhibit Mtb relative to compound 6 [2]: 10 times
O=C(O)c1ccccc1S[C@@H]1CC(=O)[C@@H]2OC[C@H]1O2 [Compound 8, 1,6-anhydro-3-deoxy-4-S-β-salicylyl-D-glycero-hexopyranos-2-ulose]	1.28		> 10000	> 10000	MIC50 [2, 7]: 200 µM (≈ 56.1 µg/mL); Fold increase of the concentration (MIC50) needed to inhibit Mtb relative to compound 6 [2]: 4 times
CC(=O)OC[C@H]1O[C@@H](S[C@@H]2CC(=O)[C@@H]3OC[C@H]2O3)[C@H](OC(C)=O)[C@@H](OC(C)=O)[C@H]1OC(C)=O [Compound 9]	-1.13	> 150			Fold increase of the concentration (MIC50) needed to inhibit Mtb relative to compound 6 [2]: at least 3 times
CC(=O)N[C@H]1CO[C@H](CO)[C@@H](O)[C@@H]1O [Compound 10, 2-acetamido-2-dexy-1,5-anhydro-D-mannitol]	-2.75	> 1000	> 10000	> 10000	
CC1(C)O[C@H]2O[C@H](C3CO3)[C@H](O)[C@H]2O1 (stereo partly drawn) [Compound 11, 1,2-O-isopropylidene-5,6-anhydro-D-glucofuranose]	-0.39	750 (≈ 152 µg/mL)			
COCC(OC(C)=O)[C@H]1O[C@@H]2OC(C)(C)O[C@@H]2[C@H]1OC(C)=O (stereo partly drawn) [Compound 12, 1,2-O-isopropylidene-3,5-di-O-acetyl-6-methoxy-D-glucofuranose]	-0.2	> 1000	> 5000	> 10000	
O=[N+]([O-])CC1(O)O[C@H](CO)[C@@H](O)[C@H](O)[C@H]1O (stereo partly drawn) [Compound 13, 1-C-nitromethyl-D-gluco-pyranose]	-4.22	> 1000	> 10000	> 10000	
NC(=S)NN=C1C=C[C@H]2CO[C@@H]1O2 [Compound 14, 1,6-anhydro-3,4-dideoxy-α-D-glycero-hex-3-enopyranos-2-thiosemicarbazone]	-0.18	350 (≈ 69.7 µg/mL)	> 5000	> 5000	
NC(=S)NN=C1CC[C@H]2CO[C@@H]1O2 [Compound 14A, 1,6-anhydro-3,4-dideoxy-α-D-glycero-hexopyranos-2-thiosemicarbazone]	-0.29	> 1000	> 2500	> 1250	
CC(=O)OC[C@H]1O[C@@H](O[C@H]2[C@H](OC(C)=O)[C@@H](OC(C)=O)[C@H](S[C@@H]3CC(=NNC(N)=S)[C@@H]4OC[C@H]3O4)O[C@@H]2COC(C)=O)[C@H](OC(C)=O)[C@@H](OC(C)=O)[C@H]1OC(C)=O [Compound 16A]				> 1250	Concentration inhibiting the growth of E. coli (Escherichia coli): below 1 mM; MIC50 (Escherichia coli; microdilution, Mueller-Hinton broth, 18 h, OD600, printed in µM): > 150 µM; Inhibition of growth of intracellularly deposited tubercle bacilli (in words) [3]: able to inhibit the growth; Decrease of the number of intracellularly growing mycobacteria ([3]; MOI 1:10, 48 h, compound at MIC (30 µM for 16A), CFU vs untreated control): ~61%; MIC50 [2, 7]: 30 µM (≈ 25.6 µg/mL)
CC(=O)OC[C@H]1O[C@@H](O[C@H]2[C@H](OC(C)=O)[C@@H](OC(C)=O)[C@H](S[C@@H]3CC(=O)[C@@H]4OC[C@H]3O4)O[C@@H]2COC(C)=O)[C@H](OC(C)=O)[C@@H](OC(C)=O)[C@H]1OC(C)=O [Compound 16]	-2.18	500 (≈ 389 µg/mL)	> 5000	> 5000	Fold increase of the concentration (MIC50) needed to inhibit Mtb relative to compound 6 [2]: 10 times
CC(=O)OC[C@H]1O[C@@H](O[C@H]2[C@H](OC(C)=O)[C@@H](OC(C)=O)[C@H](SC34CC5CC(CC(C5)C3)C4)O[C@@H]2COC(C)=O)[C@H](OC(C)=O)[C@@H](OC(C)=O)[C@H]1OC(C)=O [Compound 19]		500 (≈ 393 µg/mL)			
Nc1nnc(S[C@@H]2CC(=O)[C@@H]3OC[C@H]2O3)s1 [Compound 23, (1R,2R,5R)-2-((5-amino-1,3,4-thiadiazol-2-yl)-thio)-6,8-dioxabicyclo[3.2.1]octan-4-one]	1.37		> 1250	> 625	Concentration inhibiting the growth of E. coli (Escherichia coli): below 1 mM; Inhibition of growth of intracellularly deposited tubercle bacilli (in words) [3]: able to inhibit the growth; also recorded: significantly inhibit the growth; Concentration inhibiting the growth of S. aureus (Staphylococcus aureus): ≤ 1 mM; MIC50 [2, 7]: 25 µM (≈ 6.48 µg/mL); melting point: 140 to 142 °C; OD[570nm] ± SD [4]: 2.428 ± 0.031
O=C1C[C@@H](SC2=NCCS2)[C@H]2CO[C@@H]1O2 [Compound 26, (1R,2R,5R)-2-((4,5-dihydrothiazol-2-yl)-thio)-6,8-dioxabicyclo[3.2.1]octan-4-one]	1.13		> 2500	> 2500	Concentration inhibiting the growth of E. coli (Escherichia coli): below 1 mM; Inhibition of growth of intracellularly deposited tubercle bacilli (in words) [3]: able to inhibit the growth; MIC50 [2, 7]: 50 µM (≈ 12.3 µg/mL); melting point: 127 to 129 °C
albomycin					MIC (bacterium): 0.008 µM
